Measurements from US5514654A, “N-acyldipeptides, processes for the preparation thereof and pharmaceutical compositions containing the same” (priority 1990, dated 1996).
“And” between values parts separate entries of the source, which are not always exact repeats. Equal entries are not always repeated.

Experiments:
[1] = test system: splenic lymphocytes B and lymphocytes T; assay: Determination of the number of lymphocytes B and lymphocytes T; type: in vivo, female HAN-NmRI strain mice; settings: 25, 2.5 and 0.25 μg by injection on 3 consecutive days after Brewer's thioglycolate medium i.p.; spleen isolated day 4
Protocol: (§1) Immunological studies were performed on female HAN-NmRI strain mice of 3-4 weeks, weighing from 18-21 g.
(§2) In tests 1.1 to 1.5, the animals were first administered the Brewer's thioglycolate medium by i.p. injection, which was followed after 6 hours by the injection of 0.5 ml of a solution containing 25 μg, 2.5 μg and 0.25 μg respectively of N-acetyl-muramyl-L-alanyl-D-isoglutamine (muramyl dipeptide, MDP) or of N-(7-oxooctanoyl)-L-alanyl-D-isoglutamine (compound 1, Example 19). Equal doses were administered to the animals on days 2 and 3. On day 4 the animals were sacrificed and the spleen and the peritoneal macrophages were isolated.
To the isolated splenic lymphocytes there were added fluorescein isothiocyanate labelled antimouse antibodies (for the determination of lymphocytes B) and anti-Thy 1 monoclonal antibodies (for the determination of lymphocytes T) respectively. After incubation and rinsing with RPMI 1640 medium (Gibco, Great Britain), the lymphocytes were counted by fluorescence microscopy.

[2] = test system: peritoneal macrophages; assay: Determination of the number of macrophages; type: in vivo, female HAN-NmRI strain mice; settings: 25, 2.5 and 0.25 μg on 3 consecutive days; peritoneal cavity washings three days after thioglycolate stimulation
Protocol: as §1, §2
The number of macrophages in the peritoneal cavity washings was determined three days after the stimulation with Brewer's thioglycolate medium. The cells were suspended in ice-cold RPMI 1640 medium, to which trypan blue was added, and counted in Neubauer's chamber.

[3] = test system: splenic lymphocytes (lymphocytes T); assay: Blast transformation of lymphocytes by mithogens (concanavalin A, tritium labelled thymidine incorporation); type: in vivo, female HAN-NmRI strain mice; settings: for Amount of active thymidine incoporated in lymphocyte DNA (cpm), x ± s.e.m: lymphocytes stimulated in vitro with concanavalin A
Protocol: as §1, §2
Isolated splenic lymphocytes were prepared in a concentration of 1×10^6 /ml in the RPMI 1640 medium, to which there were added 10% of foetal calf serum (FCS) (Sera-Lab, Great Britain), 1 ml of 200 mM L-glutamine solution and 1 ml of an antibiotic solution (100 U/ml of penicillin and 100 μg/ml of streptomycin) for 100 ml of complete medium. To each flat bottom well of a microtitration plate (T grade, Nunc, Denmark) 100 μl of the cell suspension were distributed. The cells were stimulated in vitro by adding concanavalin A (con A) (Pharmacia, Sweden) at respective concentrations of 16, 8, and 4 μg/ml. Control lymphocyte cultures were grown in basal medium only. The cells were then incubated at 37° C., 5% CO2 and 95% humidity for 2 days, followed by the addition of tritium labelled thymidine. After 16 hours the samples were prepared for the measurement in a β-counter. The results were expressed as incorporation indexes with respect to the control group of the animals.

[4] = test system: peritoneal macrophages; assay: Activation of peritoneal macrophages without additional in vitro stimulation with PMA (ferricytochrome C reduction); type: in vivo, female HAN-NmRI strain mice; settings: for increase of macrophage activity: versus control
Protocol: as §1, §2
(§3) The peritoneal cavity of the animals was rinsed with 4 ml of ice-cold RPMI 1640 medium. The cytolysis of erythrocytes was effected with 0.2% NaCl. The remaining cells were washed twice in a cooled centrifuge at 4° C. and 1500 rpm for 5 minutes with ice-cold RPMI 1640 medium. The cells were re-suspended and the concentration was adjusted to 1.5×10^6/ml. The cell suspension was distributed among the flat bottom wells of a microtitration plate (T grade, Nunc, Denmark). After incubating for 2 hours at 37° C., 5% CO2 and 95% humidity, the wells were rinsed with warm RPMI 1640 medium and the adhering macrophages were used for testing.
(§4) After incubating for 90 minutes at 37° C., 5% CO2 and 95% humidity, the absorbance was measured at the wavelength of 570 nm.
(§5) The results are shown in Table 2 as the difference in the absorbance of the test sample and of the blank, calculated for 1 mg of cell protein.

[5] = test system: peritoneal macrophages; assay: Activation of peritoneal macrophages with additional in vitro stimulation with PMA (ferricytochrome C reduction); type: in vivo, female HAN-NmRI strain mice; settings: for increase of macrophage activity: versus control
Protocol: as §1, §2, §3, §4, §5

[6] = test system: lymphocytes B; assay: Determination of haemolytic plaques for the assessment of the maturation of lymphocytes B; type: in vivo, female HAN-NmRI strain mice; settings: 1 μg/mouse one day after sheep erythrocytes i.p.; control 86±12.7
Protocol: as §1
A 1% suspension of sheep erythrocytes (Institute of Microbiology, Faculty of Medicine, Ljubljana, Yugoslavia) in physiological saline was used for the immunisation. First, individual mice were administered 0.2 ml of this suspension by i.p. injection, followed next day by 0.1 ml (1 μg/mouse) of the test substance. The immunisation was completed on the fifth day after the administration of sheep erythrocytes and the mice were sacrificed.
Their spleens were removed and homogenized in Parker 199 Medium with added amminoacids, streptomycin and sodium carbonate (Torlak, Beograd, Yugoslavia). The lymphocytes were separated on the Ficol Separating Medium (Pharmacia, Uppsala, Sweden). After repeated rinsing with Parker 199 Medium, the cells were resuspended in RPMI 1640 nutrient medium with added 10% of fetal calf serum and streptomycin. To 50 μl of the cell suspension, 450 μl of trypan blue were added and the cells were counted in Neubauer's chamber. The number of lymphocytes per ml of the cell suspension was calculated. […] After the completion of the incubation, the plaques were counted under microscope.
The number of plaques per 1×10^6 cells was calculated according to the following equations: [formula]

[7] = test system: Fibrosarcoma SA-1; assay: Antitumour activity, tumour growth delay; type: in vivo, A/J strain mice; settings: for Time needed for the tumour growth to the volume of 150 mm^3, Number of days (± SD) / Growth delay (± SD): 5 doses; for Time needed for the tumour growth to the volume of 150 mm^3, Number of days (± SD): control 5.5 ± 0.8; for Growth delay (± SD): versus control group
Protocol: The studies were performed on A/J strain mice (Institute Rudjer Boskovic, Zagreb, Yugoslavia) of 8 to 10 weeks. All animals used in the same experiment were of the same sex and age.
Fibrosarcoma SA-1 was used as the experimental tumour model. Tumorous cells were obtained from the ascitic form of the SA-1 tumour of the syngeneic A/J mouse. They were implanted into animals dorsilaterally by s.c. injection of 5×10^5 live tumour cells. The testing was started after the tumours had grown to a volume of 35 mm^3. The test substance was injected i.p. on five consecutive days in a dose of 2.5 or 25 μg. The growth of the tumours was monitored by measuring the diameters and the thickness of the tumours. The tumour volumes were calculated according to the formula 0.523×a×b×c (a, b and c being the tumour diameters).
The delay in the growth of each individual tumour was obtained by deducting the relevant time of growth of the tumour in the control group from the time needed for the growth of the tumour to reach the volume of 150 mm^3.

[8] = Pyrogenous activity according to the method of USP XXII; type: in vivo
Protocol: The pyrogenous activity was determined according to the method of USP XXII.

[9] = Toxicity, average lethal dose (LD50); type: in vivo
[10] = daily dose 0.25 μg for 3 consecutive days
[11] = daily dose 2.5 μg for 3 consecutive days
[12] = daily dose 25 μg for 3 consecutive days

## CC(=O)CCCCCC(=O)N[C@@H](C)C(=O)N[C@H](CCC(=O)O)C(N)=O [Compound 1, N-(7-oxooctanoyl)-L-alanyl-D-isoglutamine]
[1]
  number of splenic lymphocytes B: Neither the number of splenic lymphocites B nor of lymphocytes T was altered to a statistically significant extent
  number of splenic lymphocytes T: Neither the number of splenic lymphocites B nor of lymphocytes T was altered to a statistically significant extent
[2]
  number of peritoneal macrophages: not altered to a statistically significant extent
[3]; [10]
  Amount of active thymidine incoporated in lymphocyte DNA (cpm), x ± s.e.m: 16860 ± 5210 cpm
[3]; [11]
  Amount of active thymidine incoporated in lymphocyte DNA (cpm), x ± s.e.m: 19080 ± 5470 cpm
[3]; [12]
  Amount of active thymidine incoporated in lymphocyte DNA (cpm), x ± s.e.m: 16380 ± 2950 cpm
[3]; dose of 25 μg
  immunomodulatory effect in lymphocytes T compared with MDP: statistically greater
[3]; dose of 25 μg, concanavalin A, versus control, p<0.05
  increase of the blastic activity of lymphocytes T: about 70%
[4]; 0.25 to 25 μg
  dose dependence of macrophage activation: dose-dependent
[4]; daily dose 0.25 μg
  Difference in absorbancies of the test sample and of the blank per mg of cell protein, x ± s.e.m: 273 ± 40
[4]; daily dose 2.5 μg
  Difference in absorbancies of the test sample and of the blank per mg of cell protein, x ± s.e.m: 387 ± 56
[4]; daily dose 25 μg
  Difference in absorbancies of the test sample and of the blank per mg of cell protein, x ± s.e.m: 518 ± 20
[4]; dose 0.25 μg
  increase of macrophage activity: did not increase the activity
[4]; dose 2.5 μg
  increase of macrophage activity: 40%
[4]; dose 25 μg
  increase of macrophage activity: 90%
[4]; doses of 2.5 and 25 μg, p>0.05
  difference in macrophage activation between muramyl dipeptide and compound 1: no statistically significant difference
[5]; [10]
  Difference in absorbancies of the test sample and of the blank per mg of cell protein, x ± s.e.m: 1480 ± 336
[5]; [11]
  Difference in absorbancies of the test sample and of the blank per mg of cell protein, x ± s.e.m: 1630 ± 297
[5]; [12]
  Difference in absorbancies of the test sample and of the blank per mg of cell protein, x ± s.e.m: 2200 ± 177
[5]; dose 0.25 μg (lowest dose)
  increase of macrophage activity: about 50%
[5]; dose 2.5 μg
  increase of macrophage activity: about 60%
[5]; dose 25 μg
  increase of macrophage activity: about 120%
[5]; doses of 2.5 and 25 μg, p>0.05
  difference in macrophage activation between muramyl dipeptide and compound 1: no statistically significant difference
[6]
  number of plaques (per 1×10^6 cells), x±s.e.m: 170±39.9 and 245±75.5
[7]; 2.5 μg daily i.p.
  Time needed for the tumour growth to the volume of 150 mm^3, Number of days (± SD): 7.3 ± 1.5 days
  Growth delay (± SD): 1.8 ± 0.5
[7]; 25.0 μg daily i.p.
  Time needed for the tumour growth to the volume of 150 mm^3, Number of days (± SD): 7.0 ± 1.7 days
  Growth delay (± SD): 1.5 ± 0.5
[7]; 25 μg versus 2.5 μg
  difference in antitumour activity between the higher and the lower dose: no statistically significant difference
[7]; dose of 2.5 μg and dose of 25 μg
  antitumour activity in comparison to the control: moderate and statistically significant
[8]
  pyrogenous activity: did not show any pyrogenous activity
[9]; all described immunological effects
  factor by which the immunologically effective dose is lower than LD50: at least 2000 times
[9]; i.v. application, male mice
  average lethal dose (LD50): > 250 mg/kg
